The results in this text go back to BindingDB's records for doi:10.7270/Q29K48M5 (University of Pittsburgh, 2007).

Some results are limits rather than exact numbers.

The target of this assay is T1, M-phase inducer phosphatase 2 (Homo sapiens, UniProt P30305).
T1 sequence (P30305 whole entry): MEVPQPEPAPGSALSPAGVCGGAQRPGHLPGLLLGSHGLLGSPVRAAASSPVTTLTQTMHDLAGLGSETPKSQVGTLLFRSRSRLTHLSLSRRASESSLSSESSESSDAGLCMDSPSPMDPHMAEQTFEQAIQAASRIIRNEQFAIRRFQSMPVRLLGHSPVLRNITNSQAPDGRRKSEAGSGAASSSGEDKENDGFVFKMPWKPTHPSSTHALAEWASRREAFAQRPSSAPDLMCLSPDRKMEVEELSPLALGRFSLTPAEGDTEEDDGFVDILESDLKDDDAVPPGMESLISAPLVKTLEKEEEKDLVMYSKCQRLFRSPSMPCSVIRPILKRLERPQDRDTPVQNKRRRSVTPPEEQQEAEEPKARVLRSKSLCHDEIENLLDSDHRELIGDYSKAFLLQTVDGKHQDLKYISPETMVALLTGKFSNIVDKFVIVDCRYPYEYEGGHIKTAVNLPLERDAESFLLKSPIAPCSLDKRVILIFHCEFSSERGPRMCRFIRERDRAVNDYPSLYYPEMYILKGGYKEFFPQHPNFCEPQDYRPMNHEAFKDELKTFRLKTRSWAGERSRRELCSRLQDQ
The assay can be described thus: Cdc25B catalytic domain phosphatase inhibitors, dose response, biochemical, 25 mM DTT, probe assessment (AID 649).
With `O=C(Nc1ccc2nc(-c3ccco3)c(-c3ccco3)nc2c1)N1CCCCCC1`, the midpoint of inhibition, the IC50, lay at 39.8 µM.

For `CCn1nc(-c2ccccc2)nc2c(=O)n(C)c(=O)nc1-2` [1-Ethyl-6-methyl-3-phenyl-1H-pyrimido[5,4-e][1,2,4]triazine-5,7-dione], the IC50 turned out to be 21.1 µM.

In turn, `CC(=O)Nc1cc(OC(C)=O)c2nonc2c1OC(C)=O` [Acetic acid 7-acetoxy-5-acetylamino-benzo[1,2,5]oxadiazol-4-yl ester] gave an IC50 greater than 50 µM.

Turning to `O=C1Cc2ccccc2C(=O)N1CCc1ccccc1` [2-(2-phenylethyl)-4H-isoquinoline-1,3-dione], the IC50 is greater than 50 µM.

Turning to `O=C(NC1(O)C(=O)c2ccccc2C1=O)c1ccccc1` [N-(2-hydroxy-1,3-dioxo-2-indenyl)benzamide], the half-inhibitory concentration (IC50) is greater than 50 µM.

As for `Oc1nc(Nc2ccccc2)cc2ccccc12` [MLS000043701], the IC50 was determined as 48 µM.

In turn, `c1ccc(CSc2nnc(-c3ccco3)c(-c3ccco3)n2)cc1` [MLS-0029114.0001] had an IC50 greater than 50 µM.

With `[O-]/[N+](=C\c1ccncc1)c1ccccc1`, the IC50 was greater than 50 µM.

Turning to `COc1ccc(Br)cc1C=c1sc2nc(-c3ccco3)nn2c1=O` [5-[(5-bromanyl-2-methoxy-phenyl)methylidene]-2-(furan-2-yl)-[1,3]thiazolo[3,2-b][1,2,4]triazol-6-one], the IC50 amounted to 14.7 µM.

For `COc1cccc2c(C)c(C(=O)O)[nH]c12`, 10.9 µM corresponded to half-maximal inhibition (IC50).

The molecule `Cc1ccc2c(c1C)NC(C(=O)O)C1CC=CC21` (stereo not drawn) yielded an IC50 of 17.7 µM.

In turn, `Cc1c(N=c2c(=O)c3ccccc3c2=O)c(=O)n(-c2ccccc2)n1C` [MLS000105950] gave an IC50 greater than 50 µM.

With `Cc1ccc2c(c1)C1C=CCC1C(C(=O)O)N2` (stereo not drawn) [MLS-0067149.0001], half-maximal inhibition (IC50) required 11.4 µM.

For the molecule `N#Cc1c(N)sc(=S)c2c1CCN(Cc1ccccc1)C2` [3-Amino-7-benzyl-1-thioxo-5,6,7,8-tetrahydro-1H-thiopyrano[3,4-c]pyridine-4-carbonitrile], it took 49.3 µM to reach half-maximal inhibition (IC50).

With `Cn1ncnc2c(=O)n(C)c(=O)nc1-2`, the IC50 is 34.5 µM.

Regarding `O=C1C=Cc2ccccc2/C1=C/NC12CN3CCN(CN(C3)C1)C2` [MLS000071484], the IC50 is greater than 50 µM.

Regarding `Cc1ccccc1Nc1cc2ccccc2c(O)n1` [3-[(2-methylphenyl)amino]-2H-isoquinolin-1-one], the IC50 was 42.3 µM.

Take `COc1ccc2noc3c2c1C(=O)c1ccccc1-3` [MLS000106874]: the IC50 was greater than 50 µM.

In turn, `CCOC(=O)C(C(=O)OCC)c1cc(Br)c2noc3c2c1C(=O)c1ccccc1-3` [MLS000038842] returned an IC50 greater than 50 µM.

The molecule `O=C1C=Cc2ccccc2C1=O` [1,2-dihydronaphthalene-1,2-dione] displayed an IC50 greater than 50 µM.

In turn, `COc1cccc2c1NC(C(=O)O)C1CC=CC21` (stereo not drawn) [SMR000009698] returned an IC50 of 11.7 µM.

For the molecule `[O-]/[N+](=C\c1ccc(OC(F)F)cc1)c1ccccc1` [1-[4-(difluoromethoxy)phenyl]-N-phenylmethanimine oxide], the IC50 was greater than 50 µM.

`CCOc1ccc2noc3c2c1C(=O)c1ccccc1-3` [MLS000106837]: the IC50 was greater than 50 µM.

Molecule `O=C(O)C1Nc2c(O)cccc2C2C=CCC12` (stereo not drawn) gave an IC50 of 12.8 µM.

Molecule `O=C(OC1CCCCC1)c1ccc2c(c1)C1C=CCC1C(C(=O)O)N2` (stereo not drawn) [SMR000019385] returned an IC50 of 7.42 µM.

With `Nc1cccc2cnccc12` [isoquinolin-5-amine], the IC50 is greater than 50 µM.

As for `N#Cc1c(N2CCCC2)nc(N)c2c(N)nc(N3CCCC3)cc12` [SMR000061605], the IC50 was greater than 50 µM.

As to `CCn1nc(-c2cccs2)nc2c(=O)n(C)c(=O)nc1-2` [1-ethyl-6-methyl-3-thiophen-2-yl-pyrimido[5,4-e][1,2,4]triazine-5,7-dione], it took 17.2 µM to reach half-maximal inhibition (IC50).

As a reminder, the IC50 is the concentration that inhibits the measured activity by half. Lower therefore signals greater potency in that assay.
